Data set [1] is described as follows: Plasma stability of AJ003-40 and AJ003-24 (HPLC, Example 4). In kind it is in vitro ADME. Particulars: human plasma; for main peak area: 2 mg/mL. The protocol:
Peptides AJ003-40 and AJ003-24 were separately weighed and mixed with human plasma to prepare solutions at 2 mg/mL. 300 µL of peptide-containing plasma was mixed with 300 µL acetonitrile, centrifuged at 4°C and 12,000 rpm for 5 minutes, and the supernatant was filtered through an organic membrane. 200 µL of the filtrate was transferred to an LC vial as the 0 h sample. Peptide-containing plasma was incubated in a 37°C water bath. For AJ003-40, 300 µL of plasma was sampled at 24 h, mixed with 300 µL acetonitrile, centrifuged, filtered, and 200 µL of the filtrate was transferred to an LC vial as the 24 h sample. For AJ003-24, 300 µL of plasma was sampled at 22 h, processed similarly, and 200 µL of the filtrate was transferred to an LC vial as the 22 h sample.

Data set [2] deals with mouse oxaliplatin acute chemotherapy pain model. Briefly: Mouse oxaliplatin chemotherapy pain model, multiple peptides (Example 8). It is filed as in vivo. Particulars: single dose 3 mg/kg s.c., 0.5-8 h post-dose, n=3. The protocol:
Oxaliplatin was dissolved in 5% glucose solution to a concentration of 1 mg/mL. For model induction, each male C57 mouse (Shanghai Bikai Keyi Biotechnology Co., Ltd.) received a single intraperitoneal injection of oxaliplatin at 10 mg/kg. Mice in the negative control or blank control group received 5% glucose solution. Approximately one week after model induction, mechanical pain thresholds of the mice were measured three times per mouse, and the average value was calculated. Mice were then randomly assigned to groups based on their pain thresholds. Drug administration was carried out according to the dosing schedule shown in Table 7, with a single dose per mouse. Mechanical pain thresholds were measured at 0.5, 1, 2, 4, 6, and 8 h post-dose. […] Table 7 Dosing Scheme for Oxaliplatin Chemotherapy Pain Model in Mice

In data set [3] the target is Cav2.2 channel (Homo sapiens, UniProt Q00975). The settings on record: cited from earlier work.
Data set [4] has as its target T1, α9 nAChR (Homo sapiens, UniProt Q9UGM1).
T1 construct: inferred from capture on NTA sensor
The data set can be described thus: BLI (biolayer interferometry) affinity of peptides to α9 nAChR. In kind it is binding. The settings on record: NTA sensor, α9 nAChR 5 µg/mL, peptide 1.372-1000 nM in PBS. The source says: (§1) BLI is a label-free technology that converts optical interference signals occurring on the surface of BLI biosensors into real-time response signals. By monitoring the molecular binding process in real time, the system determines association rate constants (ka or kon), dissociation rate constants (kd or koff), and initial binding rates, and calculates affinity (KD) by fitting analysis. Here are the specific procedures: NTA sensors (Sartorius) were placed in a pre-wetting tray, which was then positioned in a black 96-well plate with 200 µL PBS per well. The NTA sensors were pre-wetted for at least 15 minutes. The target protein α9 nAChR was diluted in PBS to 5 µg/mL, with 200 µL added per well. Test peptides were dissolved in PBS and serially diluted threefold, with concentrations from high to low as 1000 nM, 333.3 nM, 111.1 nM, 37.04 nM, 12.35 nM, 4.115 nM, and 1.372 nM, with an additional well with PBS only as a zeroconcentration control. After equilibrating the instrument baseline, the NTA sensor was used to immobilize the target protein α9 nAChR. Once immobilization was complete, the baseline was re-equilibrated, followed by a 5-minute association and a 5-minute dissociation phase. Affinity measurements of the test peptides were conducted sequentially using the above procedure. The procedure for measuring peptide affinity to α7 nAChR was similar, except that the α7 nAChR concentration was 20 µg/mL. Tables 2 and 3 show the BLI-determined affinities of alanine-scan peptide analogs with target proteins, which identified sites on the parent peptide suitable for modification. Subsequently, single-site non-natural amino acid substituted peptides were evaluated by BLI for target protein affinity. Finally, multi-site combinatorial modified peptides were measured for affinity by BLI, leading to the selection of high-affinity peptides for further screen and drug development potential. Table 2 Test Results for Affinity of Modified Peptides to α9 nAChR
On the technique in general: Biolayer interferometry detects binding as a change in optical thickness at a sensor tip.

Data set [5] has as its target α9α10 nAChRs (Homo sapiens, UniProt Q9GZZ6+Q9UGM1). Particulars: cited from earlier work.
The target of data set [6] is α7 nAChR (Homo sapiens, UniProt P36544). The data set can be described thus: BLI (biolayer interferometry) affinity of peptides to α7 nAChR. The settings on record: NTA sensor, α7 nAChR 20 µg/mL, peptide 1.372-1000 nM in PBS. Details: inferred from the 'similar' procedure on NTA sensors. It is filed as binding.
Description: as §1

Positions of bridges follow the written chain, without caps; N, C: chain ends. Non-standard residues stand in square brackets, D forms with d. Residues, ends and D or L forms follow the SMILES beside them. Hyp = O=C(O)[C@@H]1C[C@@H](O)CN1; Aib = CC(C)(N)C(=O)O

T1 sequence (Q9UGM1 23-479): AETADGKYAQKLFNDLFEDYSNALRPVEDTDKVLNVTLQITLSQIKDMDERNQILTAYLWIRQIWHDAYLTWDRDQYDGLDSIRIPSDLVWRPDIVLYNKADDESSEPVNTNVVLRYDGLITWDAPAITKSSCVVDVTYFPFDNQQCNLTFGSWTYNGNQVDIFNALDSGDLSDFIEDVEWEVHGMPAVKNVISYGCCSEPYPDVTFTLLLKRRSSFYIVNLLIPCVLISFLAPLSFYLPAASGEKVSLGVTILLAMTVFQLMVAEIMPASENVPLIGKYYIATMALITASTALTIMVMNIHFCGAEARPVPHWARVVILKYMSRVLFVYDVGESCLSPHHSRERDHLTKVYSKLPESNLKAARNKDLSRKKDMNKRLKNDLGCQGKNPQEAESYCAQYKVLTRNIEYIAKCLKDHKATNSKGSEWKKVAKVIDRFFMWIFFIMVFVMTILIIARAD
Chain of Cav2.2 channel (Q00975 whole entry, looked up): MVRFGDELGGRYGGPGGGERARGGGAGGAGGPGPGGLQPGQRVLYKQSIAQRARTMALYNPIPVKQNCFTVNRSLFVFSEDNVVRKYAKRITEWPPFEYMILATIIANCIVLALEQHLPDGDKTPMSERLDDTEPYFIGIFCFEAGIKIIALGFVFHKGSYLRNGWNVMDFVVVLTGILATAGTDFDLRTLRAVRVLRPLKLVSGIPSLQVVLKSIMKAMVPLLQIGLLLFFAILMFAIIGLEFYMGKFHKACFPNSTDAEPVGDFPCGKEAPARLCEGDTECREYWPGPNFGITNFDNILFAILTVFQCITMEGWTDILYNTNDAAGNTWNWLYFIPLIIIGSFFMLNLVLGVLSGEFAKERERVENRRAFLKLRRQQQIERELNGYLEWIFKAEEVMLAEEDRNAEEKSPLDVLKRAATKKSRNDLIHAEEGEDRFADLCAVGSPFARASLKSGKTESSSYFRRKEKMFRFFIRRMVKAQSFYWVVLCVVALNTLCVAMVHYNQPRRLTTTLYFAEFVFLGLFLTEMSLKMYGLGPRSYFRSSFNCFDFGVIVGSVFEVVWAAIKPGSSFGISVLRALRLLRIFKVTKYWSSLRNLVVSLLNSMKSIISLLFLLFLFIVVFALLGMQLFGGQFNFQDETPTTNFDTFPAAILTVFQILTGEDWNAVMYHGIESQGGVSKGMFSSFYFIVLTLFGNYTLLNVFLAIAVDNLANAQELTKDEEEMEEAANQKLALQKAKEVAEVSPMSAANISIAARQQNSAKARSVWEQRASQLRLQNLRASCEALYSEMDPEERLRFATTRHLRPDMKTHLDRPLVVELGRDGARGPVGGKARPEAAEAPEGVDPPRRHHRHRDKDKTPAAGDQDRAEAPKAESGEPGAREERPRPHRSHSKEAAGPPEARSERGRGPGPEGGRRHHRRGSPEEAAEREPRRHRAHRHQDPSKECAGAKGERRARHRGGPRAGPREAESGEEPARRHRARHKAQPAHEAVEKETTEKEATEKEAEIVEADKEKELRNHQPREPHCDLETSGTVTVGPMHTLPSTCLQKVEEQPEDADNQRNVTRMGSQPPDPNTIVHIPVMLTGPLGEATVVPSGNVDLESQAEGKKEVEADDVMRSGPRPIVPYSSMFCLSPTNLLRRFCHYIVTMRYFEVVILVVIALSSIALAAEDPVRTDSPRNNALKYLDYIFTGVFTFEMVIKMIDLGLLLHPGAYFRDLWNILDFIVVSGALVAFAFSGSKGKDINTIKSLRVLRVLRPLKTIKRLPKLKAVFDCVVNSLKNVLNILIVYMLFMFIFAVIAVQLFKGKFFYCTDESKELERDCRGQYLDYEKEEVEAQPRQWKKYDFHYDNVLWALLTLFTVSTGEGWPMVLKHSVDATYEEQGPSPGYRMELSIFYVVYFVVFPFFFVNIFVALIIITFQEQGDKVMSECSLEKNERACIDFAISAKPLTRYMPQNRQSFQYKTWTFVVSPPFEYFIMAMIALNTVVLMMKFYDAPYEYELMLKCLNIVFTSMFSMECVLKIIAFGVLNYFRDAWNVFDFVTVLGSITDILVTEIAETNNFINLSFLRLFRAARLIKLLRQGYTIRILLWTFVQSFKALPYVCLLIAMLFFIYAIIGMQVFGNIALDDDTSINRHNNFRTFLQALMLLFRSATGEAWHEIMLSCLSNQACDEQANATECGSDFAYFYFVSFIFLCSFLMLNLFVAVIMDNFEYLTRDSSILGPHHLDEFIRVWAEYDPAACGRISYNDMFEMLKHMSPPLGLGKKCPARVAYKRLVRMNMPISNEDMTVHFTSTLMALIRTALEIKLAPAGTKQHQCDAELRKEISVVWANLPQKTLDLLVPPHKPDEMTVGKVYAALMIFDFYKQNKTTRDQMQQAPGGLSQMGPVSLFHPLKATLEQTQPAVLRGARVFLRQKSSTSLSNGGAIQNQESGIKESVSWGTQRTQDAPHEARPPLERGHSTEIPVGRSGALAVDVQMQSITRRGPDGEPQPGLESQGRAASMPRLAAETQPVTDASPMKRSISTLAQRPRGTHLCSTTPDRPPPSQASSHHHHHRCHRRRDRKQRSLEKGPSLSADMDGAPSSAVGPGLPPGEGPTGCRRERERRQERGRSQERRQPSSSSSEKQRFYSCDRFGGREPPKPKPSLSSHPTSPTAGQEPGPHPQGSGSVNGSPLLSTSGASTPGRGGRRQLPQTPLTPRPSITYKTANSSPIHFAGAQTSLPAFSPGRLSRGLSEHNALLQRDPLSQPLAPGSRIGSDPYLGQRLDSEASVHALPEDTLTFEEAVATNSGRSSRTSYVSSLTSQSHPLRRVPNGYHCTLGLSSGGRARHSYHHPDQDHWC
Chain of α9α10 nAChRs (Q9UGM1 26-479 limits assumed): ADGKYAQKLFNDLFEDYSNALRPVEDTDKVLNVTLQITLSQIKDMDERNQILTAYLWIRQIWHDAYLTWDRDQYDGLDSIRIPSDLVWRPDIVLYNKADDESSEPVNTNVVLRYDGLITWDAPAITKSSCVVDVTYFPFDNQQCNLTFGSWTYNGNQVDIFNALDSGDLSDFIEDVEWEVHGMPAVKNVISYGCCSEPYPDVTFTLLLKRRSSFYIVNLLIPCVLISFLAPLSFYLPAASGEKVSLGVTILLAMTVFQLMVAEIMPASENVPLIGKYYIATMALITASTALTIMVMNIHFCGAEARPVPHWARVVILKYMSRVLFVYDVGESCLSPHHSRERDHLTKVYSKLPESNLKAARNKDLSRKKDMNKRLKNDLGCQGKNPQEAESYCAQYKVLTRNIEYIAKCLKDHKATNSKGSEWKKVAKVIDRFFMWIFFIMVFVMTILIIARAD
Chain of α9α10 nAChRs (Q9GZZ6 25-450): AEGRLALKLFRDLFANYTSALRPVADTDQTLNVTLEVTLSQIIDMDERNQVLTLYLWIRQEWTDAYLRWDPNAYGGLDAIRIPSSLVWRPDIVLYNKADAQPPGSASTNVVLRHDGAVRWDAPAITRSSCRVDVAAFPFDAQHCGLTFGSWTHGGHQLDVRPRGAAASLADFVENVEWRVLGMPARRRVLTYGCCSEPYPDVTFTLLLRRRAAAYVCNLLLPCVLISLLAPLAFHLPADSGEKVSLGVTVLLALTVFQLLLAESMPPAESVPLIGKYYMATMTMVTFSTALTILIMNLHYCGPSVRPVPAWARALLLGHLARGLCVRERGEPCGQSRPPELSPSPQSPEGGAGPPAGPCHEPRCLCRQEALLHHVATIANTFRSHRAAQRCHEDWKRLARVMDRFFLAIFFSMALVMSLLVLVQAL
Chain of α7 nAChR (P36544 23-502): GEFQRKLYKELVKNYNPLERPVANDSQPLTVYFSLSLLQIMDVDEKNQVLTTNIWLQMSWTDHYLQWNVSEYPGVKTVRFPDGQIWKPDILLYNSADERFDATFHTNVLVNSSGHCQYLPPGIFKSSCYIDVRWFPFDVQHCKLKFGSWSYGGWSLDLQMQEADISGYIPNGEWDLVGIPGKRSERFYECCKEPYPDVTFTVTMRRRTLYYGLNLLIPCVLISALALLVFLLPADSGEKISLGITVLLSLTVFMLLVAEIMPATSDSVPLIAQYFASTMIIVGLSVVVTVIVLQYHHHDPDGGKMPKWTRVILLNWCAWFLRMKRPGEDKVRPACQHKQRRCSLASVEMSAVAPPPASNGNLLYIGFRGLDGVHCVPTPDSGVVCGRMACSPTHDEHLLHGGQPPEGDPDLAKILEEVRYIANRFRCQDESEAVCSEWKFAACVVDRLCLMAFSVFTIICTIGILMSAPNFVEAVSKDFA

On to `CC(C)C[C@H](NC(=O)[C@@H](NC(=O)[C@H]1CSSC[C@H](NC(=O)[C@H](CO)NC(=O)CN)C(=O)N[C@@H](CO)C(=O)N[C@H]([C@H](C)O)C(=O)N2CCC[C@H]2C(=O)N2CCC[C@H]2C(=O)NCC(=O)N1)C(C)C)C(=O)N[C@@H](Cc1ccc(O)cc1)C(=O)N[C@@H](CO)C(=O)O` [AJ003-24, GSCS-(D-Thr)-PPG-(D-Cys)-VLYS (3,9 disulfide bond)] (H-GSCS[dT]PPG[dC]VLYS-OH; disulfide 3-9), for which the main peak area in data set [1] (0 h) came out at 746.80; in data set [1] (37°C, 22 h), 267.45. In data set [1] (37°C, 22 h, read-out: degradation), the metabolised at 22 h, 2 mg/mL is 64.2%. Besides, in data set [2], the “analgesic activity against oxaliplatin-induced chemotherapy pain (mechanical pain threshold compared with the model group)” value was “ineffective”.
With ziconotide, the “analgesic potency relative to opioids” value in data set [3] is given as “approximately 1000 times”.
What is called Kd is the constant that tells how readily two partners part at equilibrium. Read a high Kd as weaker binding. Compound `CC(C)C[C@H](NC(=O)[C@@H](NC(=O)[C@H]1CSSC[C@H](NC(=O)[C@H](CO)NC(=O)CN)C(=O)N[C@@H](CO)C(=O)N[C@H]([C@H](C)O)C(=O)N2CCC[C@H]2C(=O)N2C[C@H](O)C[C@H]2C(=O)N[C@@H](CO)C(=O)N1)C(C)C)C(=O)N[C@@H](Cc1ccc(O)cc1)C(=O)N[C@@H](CO)C(=O)O` [AJ003-17, GSCS-(D-Thr)-P-Hyp-S-(D-Cys)-VLYS (3,9 disulfide bond)] (H-GSCS[dT]P[Hyp]S[dC]VLYS-OH; disulfide 3-9) registered a Kd in data set [4] of 110 nM.
Consider Vc1.1, for which the “reduction of activity on human receptors compared to rat receptors” value in data set [5] was “approximately 100 fold”.
For the compound `CC(C)C[C@H](NC(=O)[C@@H](NC(=O)[C@H]1CSSC[C@H](NC(=O)[C@H](CO)NC(=O)CN)C(=O)N[C@@H](CO)C(=O)N[C@H]([C@H](C)O)C(=O)N2C[C@H](O)C[C@H]2C(=O)N2CCC[C@H]2C(=O)N[C@@H](CO)C(=O)N1)C(C)C)C(=O)N[C@@H](Cc1ccc(O)cc1)C(=O)N[C@@H](CO)C(=O)O` [AJ003-16, GSCS-(D-Thr)-Hyp-PS-(D-Cys)-VLYS (3,9 disulfide bond)] (H-GSCS[dT][Hyp]PS[dC]VLYS-OH; disulfide 3-9), the Kd in data set [4] stood at 35.3 nM. This counts as double-digit nanomolar.
`CC(C)C[C@H](NC(=O)C(C)(C)NC(=O)[C@H]1CSSC[C@H](NC(=O)[C@H](CO)NC(=O)CN)C(=O)N[C@@H](CO)C(=O)N[C@H]([C@H](C)O)C(=O)N2CCC[C@H]2C(=O)N2CCC[C@H]2C(=O)N[C@@H](CO)C(=O)N1)C(=O)N[C@@H](Cc1ccc(O)cc1)C(=O)N[C@@H](CO)C(=O)O` [AJ003-25, GSCS-(D-Thr)-PPS-(D-Cys)-Aib-LYS (3,9 disulfide bond)] (H-GSCS[dT]PPS[dC][Aib]LYS-OH; disulfide 3-9): in data set [2], the “analgesic activity against oxaliplatin-induced chemotherapy pain (mechanical pain threshold compared with the model group)” value was “ineffective”. Moreover, the Kd in data set [6] came to 4670 nM.

Values taken from patent publication EP4725956A1, “MODIFIED POLYPEPTIDE AND USE THEREOF IN FIELD OF ANALGESIA” (Nanjing Anji Biotechnology Co., Ltd., priority 2023, dated 2024).
